Data on 6 compounds can be found in patent US12369583B2, “Nematicidal compositions” (SYNGENTA CROP PROTECTION AG, priority 2018, dated 2025).

Experiment [1] relates to Soybean Cyst Nematode (Heterodera glycines). In words: Control of Heterodera glycines on soybean in a greenhouse, seed treatment. The class given is in vivo. An excerpt: Methodology for evaluating control of Heterodera glycines at all life stages on soybean in a greenhouse.
Five thousand Heterodera glycine eggs where placed in a 1 inch hole in the center of 3.5 inch×8 inch deep plastic pots. The seeds were inoculated first when applying the active compound as a seed treatment. The treated seed was placed in the center hole and covered up with sterilized top soil. Each pot was watered by hand, with approximately 50 mls of water applied to each pot once per day. 35 day after planting, the soil was gently rinsed from the roots of the emerged plants and place in a 20 mesh over a 60-mesh sieve. The root system was blasted with water to remove mature females. The 20-mesh sieve removed. The females were washed to the bottom of the 60-mesh sieve and rinsed into a tube for counting under a stereoscope. For root penetration experiments, the roots of the plants were removed from the pots at 7-14 days after planting, rinsed clean of soil, and stained with acid fuchsin stain. Stained nematodes in the roots were counted using an electronic stereoscope.
The action of pydiflumetofen against soybean syst nematode (SCN; Heterodera glycines) and its effect on soybean plants was assessed out as described previously, and compared to that of fluopyram. The number of SCN per stained root was counted, and the mean root weight per plant calculated, thus enabling the number of SCN per gram of root to be calculated.

Experiment [2] has as its system Soybean Cyst Nematode (Heterodera glycines) on Soybean. In words: Soybean yield data, seed treatment (trials 4-6). The class given is in vivo.
In experiment [3] the test system is Soybean Cyst Nematode (Heterodera glycines) eggs. In words: Evaluation of Soybean Cyst Nematode egg hatch. The class given is cell-based.
Experiment [4] deals with Root Knot Nematode (Meloidogyne incognita). In words: Root Knot Nematode control on soybean, gall count and rating. The class given is in vivo. The source says: Root Knot Nematode (Meloidogyne incognita) Methodology for Evaluating Root Knot Nematode Gall Count and Rating Process The roots of the plants were removed from the soil. The root system was then sprayed with water to remove remaining soil. The roots were spread out on a tray or counter top and the rate of galling or place each root system under a magnification light and count galls. For gall assessment ratings, a rating on a scale of 0-10 scale was given when compared against a standard gall rating chart. Gall count was also assessed.

Experiment [5] has as its system Root Knot (Meloidogyne incognita). In words: Multiple nematode species on cotton, soil counts: Root Knot. The class given is in vivo. Particulars: 0.15 mg ai/seed, measured 71 days after planting.
Experiment [6] has as its system Spiral (Helicotylenchus Spp.). In words: Multiple nematode species on cotton, soil counts: Spiral. The class given is in vivo. To be noted: 0.15 mg ai/seed, measured 71 days after planting.
The subject of experiment [7] is Reniform Nematode (Rotylenchulus reniformis). In words: Multiple nematode species on cotton, soil counts: Reniform. The class given is in vivo. To be noted: 0.15 mg ai/seed, measured 71 days after planting.
The subject of experiment [8] is Root Knot Nematode (Meloidogyne incognita) eggs. In words: Evaluation of Root Knot Nematode egg hatch. The class given is cell-based.
The subject of experiment [9] is Lesion Nematode (Pratylenchus brachyurus). In words: Lesion Nematode efficacy on soybean, stained roots. The class given is in vivo. An excerpt: Soybean plant roots were stained using acid fuchsin/methyl blue to assess for endoparasitic, endo/ectoparasitic, and semi endoparasitic nematodes that have entered the root system, using standard methodology.
Experiment [10] has as its system Reniform Nematode (Rotylenchulus reniformis). In words: Reniform Nematode efficacy on soybean, soil nematode count compared to check. The class given is in vivo.
The test system of experiment [11] is Lance (Hoplolaimus Spp.). In words: In vitro dose response assay against Lance nematode. The class given is cell-based. The source says: (§1) Lance (Hoplolaimus Spp.) and Sting (Belonolaimus longicaudatus) Nematode In Vitro Assay Measuring Dose Response of APN Against Sting and Lance Nematode.
Experiment [12] deals with Sting (Belonolaimus longicaudatus). In words: In vitro dose response assay against Sting nematode. The class given is cell-based.
Text: as §1

Experiment [13] has as its system Lesion Nematode (Pratylenchus Spp.). In words: Lesion Nematode control in corn, stained root tissue. The class given is in vivo. The source says: Corn root tissue was stained using acid fuchsin/methyl blue to assess for endoparasitic, endo/ectoparasitic, and semi endoparasitic nematodes that have entered the root system, using standard methodology. The effect of pydiflumetofen was compared to fluopyram.

Setting [14] is: Series 1 Trial 1, 0.0375 mg ai/seed.
Setting [15] is: Series 1 Trial 1, 0.075 mg ai/seed.
The mark [16] stands for this setting: Series 1 Trial 1, 0.15 mg ai/seed.
The mark [17] stands for this setting: Series 1 Trial 2, 0.075 mg ai/seed.
Setting [18] is: Series 1 Trial 2, 0.15 mg ai/seed.
The mark [19] stands for this setting: Series 2 Trial 1, 0.075 mg ai/seed.
[20] abbreviates: Series 2 Trial 1, 0.15 mg ai/seed.
Setting [21] is: Series 2 Trial 1, 0.30 mg ai/seed.
Where [22] appears, read: Sodium hypochlorite 30%, no ppm concentration printed.

Take `CON(C(=O)c1cn(C)nc1C(F)F)C(C)Cc1c(Cl)cc(Cl)cc1Cl` (centres unmarked) [Pydiflumetofen, 3-(difluoromethyl)-N-methoxy-1-methyl-N-[1-methyl-2-(2,4,6-trichloro-phenyl)ethyl]-1H-pyrazole-4-carboxamide]: the “Cysts per Gram of Root” value in experiment [1] (setting [14]) is on record as 147.9; in experiment [1] (setting [15]) it was 167.5; in experiment [1] (setting [16]), 105.0. Moreover, the “Mature SCN Cysts” value came to 24.0 in experiment [1] (setting [14]), 21.3 in experiment [1] (setting [15]) and 16.3 in experiment [1] (setting [16]). Moreover, the “Stained Juveniles w/l root” value in [1] (setting [14]) came out at 22.5; in [1] (setting [15]) it was 19.0; in [1] (setting [16]) it was 12.5. Also, the “SCN Within Root” value was 17.5 in [1] (setting [17]) and 5.0 in [1] (setting [18]). Also, the “Soybean Cyst Nematodes per Gram of Root” value in experiment [1] (setting [17]) came out at 128; in [1] (setting [18]), 29.6. Besides, the “SCN Cysts per Root” value worked out at 10.4 in experiment [1] (Series 1 Trial 3, 0.15 mg ai/seed) and 5.5 in experiment [1] (Series 1 Trial 3, 0.30 mg ai/seed). For the same compound, the “Mean SCN/root” value in experiment [1] (setting [19]) is 52.3; in experiment [1] (setting [20]), 37.0; in [1] (setting [21]), 35.2. Further, the “No. SCN/g root tissue” value was found to be 30.4 in [1] (setting [19]), 16.9 in experiment [1] (setting [20]) and 15.2 in experiment [1] (setting [21]). Besides, the “Mean Difference in Yield Compared to Checks” value in experiment [2] (Trial 4, 0.075 mg ai/seed) is listed as “+3.0 Bu/Ac”; in experiment [2] (Trial 5, 0.075 mg ai/seed), “+3.7 Bu/Ac”; in experiment [2] (Trial 6, 0.075 mg ai/seed) it was “+7.5 Bu/Ac”. Further, the “Percent Egg Hatch Reduction” value in experiment [3] (1 ppm) is reported as 4.7%; in experiment [3] (10 ppm), 34.7%; in experiment [3] (100 ppm), 64.0%; in experiment [8] (1 ppm), 1.7%; in experiment [8] (10 ppm) it was 12.8%; in experiment [8] (100 ppm), 30.6%. Besides, the “Root Knot Nematode Galling (0-10 scale)” value was 6.8 in experiment [4] (0.075 mg ai/seed) and 1.5 in [4] (0.15 mg ai/seed). Further, the “Root Knot Nematode Galls per Root” value in experiment [4] (0.075 mg ai/seed) worked out at 52.6; in experiment [4] (0.15 mg ai/seed) it was 11.2. For the same compound, the “Juveniles per 100 cc s Soil” value in experiment [5] was 132; in experiment [6] it was 254; in experiment [7] (Reniform (adult)), 2.8; in experiment [7] (Reniform (juvenile)), 1752. In addition, the “Lesion Nematode per gram of Root” value in experiment [9] (0.0375 mg ai/seed) was 164.3; in experiment [9] (0.075 mg ai/seed), 141.5; in [9] (0.15 mg ai/seed) it was 105.3; in [13] (0.4 mg ai/seed) it was 389; in [13] (0.5 mg ai/seed), 105. For the same compound, the “Lesion Nematodes w/l root” value in experiment [9] (0.0375 mg ai/seed) stood at 44.9; in experiment [9] (0.075 mg ai/seed), 38.3; in [9] (0.15 mg ai/seed), 32.3. In addition, the “Nematode Reduction Compared to Check (mean difference in soil nematode count)” value in experiment [10] (0.075 mg/seed) is listed as −2912. The “Percentage of Dead Nematodes” value amounted to 12.7 Percentage in [11] (exposure 1 hours, 0.1 ppm); 37.9 Percentage in experiment [11] (exposure 1 hours, 10 ppm); 74.8 Percentage in [11] (exposure 1 hours, 100 ppm); 68.5 Percentage in experiment [11] (exposure 24 hours, 0.1 ppm); 81.6 Percentage in experiment [11] (exposure 24 hours, 10 ppm); 23.9 Percentage in [11] (exposure 24 hours, 100 ppm). Moreover, the “Percentage of Dead Nematodes” value is 41 d Percentage in experiment [11] (exposure 48 hours, 0.1 ppm); 93.8 Percentage in [11] (exposure 48 hours, 10 ppm); 74.8 Percentage in experiment [11] (exposure 48 hours, 100 ppm); 32.9 Percentage in experiment [11] (exposure 72 hours, 0.1 ppm); 93.8 Percentage in [11] (exposure 72 hours, 10 ppm); 77.5 Percentage in experiment [11] (exposure 72 hours, 100 ppm). Further, the “Percentage of Dead Nematodes” value in experiment [12] (exposure 1 hours, 0.1 ppm) turned out to be 6.3 Percentage; in [12] (exposure 1 hours, 10 ppm) it was 5.9 Percentage; in [12] (exposure 1 hours, 100 ppm), 11.3 Percentage; in [12] (exposure 24 hours, 0.1 ppm), 4.7 Percentage; in [12] (exposure 24 hours, 10 ppm) it was 59.5 Percentage; in experiment [12] (exposure 24 hours, 100 ppm) it was 42.9 Percentage. Also, the “Percentage of Dead Nematodes” value is listed as 29.3 Percentage in experiment [12] (exposure 48 hours, 0.1 ppm); 56.3 Percentage in experiment [12] (exposure 48 hours, 10 ppm); 58 Percentage in [12] (exposure 48 hours, 100 ppm); 34.9 Percentage in experiment [12] (exposure 72 hours, 0.1 ppm); 81.1 Percentage in experiment [12] (exposure 72 hours, 10 ppm); 97.1 Percentage in experiment [12] (exposure 72 hours, 100 ppm). Further, the “Effect on nematode numbers (in words)” value in experiment [13] is listed as “reduce nematode numbers”. The entries for the “Lesion Nematodes within root system” value in [13] (0.4 mg ai/seed) and in experiment [13] (0.5 mg ai/seed) were 302 and 124, respectively.

Take `O=C(NCCc1ncc(C(F)(F)F)cc1Cl)c1ccccc1C(F)(F)F` [Fluopyram, reference compound]: the entries for the “Mean SCN/root” value in [1] (setting [19]), in [1] (setting [20]) and in experiment [1] (setting [21]) were 20.8, 17.7 and 7.3, respectively. Moreover, the “No. SCN/g root tissue” value in [1] (setting [19]) was 12.1; in [1] (setting [20]), 30.3; in [1] (setting [21]) it was 23.4. Further, the “Mean Difference in Yield Compared to Checks” value is −3.5 Bu/Ac in [2] (Trial 4, 0.15 mg ai/seed); “+5.4 Bu/Ac” in [2] (Trial 5, 0.15 mg ai/seed); “+2.9 Bu/Ac” in [2] (Trial 6, 0.15 mg ai/seed). Besides, the “Percent Egg Hatch Reduction” value in experiment [3] (1 ppm) is −1.3%; in [3] (10 ppm), 4.5%; in [3] (100 ppm), 61.9%; in experiment [8] (1 ppm), 1.1%; in experiment [8] (10 ppm), 55.9%; in experiment [8] (100 ppm), 54.7%. For the same compound, the “Nematode Reduction Compared to Check (mean difference in soil nematode count)” value in experiment [10] (0.15 mg/seed) is −3146. Besides, in experiment [13] (0.25 mg ai/seed), the “Lesion Nematode per gram of Root” value came out at 211. Besides, the “Lesion Nematodes within root system” value in experiment [13] (0.25 mg ai/seed) worked out at 108.

On to `O=S(=O)(CCC(F)=C(F)F)c1ncc(Cl)s1` [Fluensulfone], for which the “Percent Egg Hatch Reduction” value in experiment [3] (1 ppm) is −2.1%; in experiment [3] (10 ppm), −1.5%; in experiment [3] (100 ppm) it was 0.5%; in [8] (1 ppm), −3.5%; in [8] (10 ppm), −0.9%; in [8] (100 ppm) it was 48.8%.

As for `c1ccc(-c2noc(-c3cccs3)n2)cc1` [Tioxazafen], the “Percent Egg Hatch Reduction” value is 0.4% in experiment [3] (1 ppm); −0.5% in experiment [3] (10 ppm); −0.9% in experiment [3] (100 ppm); −1.9% in experiment [8] (1 ppm); −0.8% in [8] (10 ppm); 4.4% in experiment [8] (100 ppm).

Consider `OCl` [Sodium hypochlorite 30%, Sodium hypochlorite], for which the “Percent Egg Hatch Reduction” value in experiment [3] (setting [22]) and in experiment [8] (setting [22]) was 100.0% each time.

In the case of `CNC(=O)O/N=C/C(C)(C)SC` [Aldicarb], the “Nematode Reduction Compared to Check (mean difference in soil nematode count)” value in [10] (in-furrow (5.6 Kg/Ha)) was −1937.
